# Assay results from article PMC4459640 (European journal of pharmaceutical sciences : official …, 2014).
# B1: human SULT2A1 (Homo sapiens) (protein)
# chain: MSDDFLWFEGIAFPTMGFRSETLRKVRDEFVIRDEDVIILTYPKSGTNWLAEILCLMHSKGDAKWIQSVPIWERSPWVESEIGYTALSETESPRLFSSHLPIQLFPKSFFSSKAKVIYLMRNPRDVLVSGYFFWKNMKFIKKPKSWEEYFEWFCQGTVLYGSWFDHIHGWMPMREEKNFLLLSYEELKQDTGRTIEKICQFLGKTLEPEELNLILKNSSFQSMKENKMSNYSLLSVDYVVDKAQLLRKGVSGDWKNHFTVAQAEDFDKLFQEKMADLPRELFPWE
# Assays:
# [1] = test system: HepG2 human hepatoma cells
# [2] = test system: opioid receptors; settings: ref Brown et al., 1985, Frölich et al., 2011, Zuckerman et al., 1999; cited from earlier work
# [3] = test system: opioid receptors; settings: ref Brown et al., 1985, Frölich et al., 2011, Zuckerman et al., 1999; cited from earlier work; remark: listed apart in the source
# [4] = ref Brown et al., 1985, Frölich et al., 2011, Zuckerman et al., 1999; cited from earlier work
# [5] = biological target: human SULT1A1 (Homo sapiens, UniProt P50225); settings: pH 7.5
# Chain of human SULT1A1 (P50225 whole entry): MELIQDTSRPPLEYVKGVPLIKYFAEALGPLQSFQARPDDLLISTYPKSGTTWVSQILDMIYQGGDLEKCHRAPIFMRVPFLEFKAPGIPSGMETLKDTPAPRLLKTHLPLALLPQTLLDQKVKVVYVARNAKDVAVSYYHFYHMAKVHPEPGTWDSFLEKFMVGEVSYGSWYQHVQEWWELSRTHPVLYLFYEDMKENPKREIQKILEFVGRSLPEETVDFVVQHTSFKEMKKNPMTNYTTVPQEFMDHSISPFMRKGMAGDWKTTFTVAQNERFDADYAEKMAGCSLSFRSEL
# [6] = biological target: human SULT1A2 (Homo sapiens, UniProt P50226); settings: pH 7.5
# Chain of human SULT1A2 (P50226 whole entry): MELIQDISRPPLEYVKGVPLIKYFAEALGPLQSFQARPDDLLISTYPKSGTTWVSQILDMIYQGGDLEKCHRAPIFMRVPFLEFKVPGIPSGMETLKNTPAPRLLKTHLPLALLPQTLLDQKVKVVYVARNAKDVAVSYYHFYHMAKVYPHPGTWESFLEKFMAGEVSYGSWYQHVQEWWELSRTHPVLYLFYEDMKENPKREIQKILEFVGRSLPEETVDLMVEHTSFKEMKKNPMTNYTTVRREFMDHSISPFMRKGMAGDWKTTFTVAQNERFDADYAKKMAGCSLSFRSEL
# [7] = test system: UGT2B7; settings: cited from earlier work
# [8] = human, rabbit, and rat; ref Frölich et al., 2011, Smith et al., 1973, Skarke and Lötsch, 2002; cited from earlier work
# [9] = morphine metabolites in human; ref Frölich et al., 2011, Skarke and Lötsch, 2002; cited from earlier work
# [10] = substrate: Oc1ccc2c(c1)[C@@]13CCCC[C@@]1(O)[C@@H](C2)N(CC1CCC1)CC3; test: not read; settings: other: Michaelis-Menten, pH 7.5
# [11] = substrate: CN1CC[C@]23CCCC[C@H]2[C@H]1Cc1ccc(O)cc13; type: in vitro ADME, human; settings: other: Michaelis-Menten, pH 7.5
molecule,measurement,setting,value
"Oc1ccc2c(c1)[C@@]13CCCC[C@@]1(O)[C@@H](C2)N(CC1CCC1)CC3 [Butorphanol, butorphanol]",Efficiency of sulfation by HepG2 cells relative to the other three opioid drugs,[1],more efficiently
CN1CC[C@]23c4c5ccc(O)c4O[C@H]2[C@@H](OS(=O)(=O)O)C=C[C@H]3[C@H]1C5 [morphine-6-sulfate],Affinity toward opioid receptors,[2],comparable to those of morphine
same,Capability to activate the opioid receptors (ligand activity),[3],comparable to those of morphine
same,Analgesic effect compared with morphine,[4],greater analgesic effect than does morphine
"Oc1ccc2c3c1O[C@H]1[C@H](O)CC[C@@]4(O)[C@@H](C2)N(CC2CC2)CC[C@]314 [6βNaltrexol, 6β-naltrexol]","Specific activity, SULT1A1",[5],0.21 ± 0.03 nmol/min/mg
same,"Specific activity, SULT1A2",[6],0.08 ± 0.01 nmol/min/mg
"C=CCN1CC[C@]23c4c5ccc(O)c4O[C@H]2[C@@H](O)C=C[C@H]3[C@H]1C5 [Nalorphine, nalorphine]",Efficiency of sulfation by HepG2 cells relative to the other three opioid drugs,[1],more efficiently
"CN1CC[C@]23c4c5ccc(O)c4O[C@H]2C(=O)CC[C@@]3(O)[C@H]1C5 [Oxymorphone, oxymorphone]",Km,[7],540 to 1360 µM
same,Efficiency of sulfation by HepG2 cells relative to the other three opioid drugs,[1],more efficiently
"CN1CC[C@]23c4c5ccc(OS(=O)(=O)O)c4O[C@H]2[C@@H](O)C=C[C@H]3[C@H]1C5 [morphine-3-sulfate, morphine-3-O-sulfate]",Affinity toward opioid receptors,[2],low affinity
same,Capability to activate the opioid receptors (ligand activity),[3],low capability to activate the receptors
same,Sulfate metabolite as share of the metabolites from urine,[8],~ 2%
CN1CC[C@]23c4c5ccc(O)c4O[C@H]2[C@@H](O[C@@H]2O[C@H](C(=O)O)[C@@H](O)[C@H](O)[C@H]2O)C=C[C@H]3[C@H]1C5 [morphine-glucuronide],Share of metabolite,[9],60–70 % of metabolite
B1,Km,[10],38.95 ± 1.21 µM
same,Vmax,[10],0.00104 µmol/min/mg
same,Km,[11],599.0 ± 60.7 µM
same,Vmax,[11],0.00032 µmol/min/mg
